Measured values from PMC7450530 (Biochemistry, 2019).

Experiments:
[1] = target: T1, B. anthracis wild-type gyrase (Bacillus anthracis, UniProt A0A6H3A7B1); type: biochemical; settings: read-out: IC50, inhibition of DNA supercoiling
[2] = target: T2, E. coli wild-type gyrase (Escherichia coli, UniProt P0AES4); type: biochemical; settings: read-out: IC50, inhibition of DNA supercoiling
[3] = target: T3, M. tuberculosis wild-type gyrase (Mycobacterium tuberculosis, UniProt P9WG47); type: biochemical
[4] = target: T4, E. coli GyrA^S83L gyrase (Escherichia coli, UniProt P0AES4, S83L); type: biochemical
[5] = target: T5, B. anthracis wild-type topoisomerase IV (Bacillus anthracis, UniProt A0A6H3AG07); type: biochemical; settings: read-out: IC50, inhibition of DNA decatenation
[6] = target: T6, E. coli wild-type topoisomerase IV (Escherichia coli, UniProt P0AFI2); type: biochemical; settings: read-out: IC50, inhibition of DNA decatenation
[7] = target: T7, E. coli ParC^S80L topoisomerase IV (Escherichia coli, UniProt P0AFI2, S80L); type: biochemical; settings: read-out: IC50, inhibition of DNA decatenation
[8] = target: T1, B. anthracis wild-type gyrase; type: biochemical
[9] = target: T2, E. coli wild-type gyrase; type: biochemical
[10] = target: T3, M. tuberculosis wild-type gyrase; type: biochemical; remark: listed apart in the source
[11] = target: T4, E. coli GyrA^S83L gyrase; type: biochemical; remark: listed apart in the source
[12] = target: T5, B. anthracis wild-type topoisomerase IV; type: biochemical
[13] = target: T6, E. coli wild-type topoisomerase IV; type: biochemical
[14] = target: T7, E. coli ParC^S80L topoisomerase IV; type: biochemical
[15] = test system: E. coli; settings: cited from earlier work
[16] = test system: Mycobacterium tuberculosis; settings: cited from earlier work
[17] = test system: gyrase; settings: cited from earlier work
[18] = read-out: EC50, enhancement of single-stranded DNA cleavage

CC[C@H](C)n1cc(C)c2c(C(=O)NCc3c(C)cc(C)[nH]c3=O)cc(-c3ccc(N4CCNCC4)nc3)cc21 [GSK126]
IC50 [1]: ~400 nM
IC50 [2]: ~2000 nM
maximal decrease of supercoiling activity [3]: 60%
IC50 ([3]; read-out: IC50, inhibition of DNA supercoiling): ~75000 nM
fold more potent in supercoiling inhibition than against wild-type enzyme [4]: 5–10 fold
IC50 [5]: ~2300 nM
IC50 [6]: ~1400 nM
IC50 [7]: ~1400 nM
induction of double-stranded DNA breaks [8]: no ability to induce double-stranded breaks
induction of double-stranded DNA breaks [9]: no ability to induce double-stranded breaks
levels of single-stranded DNA cleavage in the presence of ATP vs absence [9]: considerably lower
induction of double-stranded DNA breaks [10]: no ability to induce double-stranded breaks
enhancement of DNA cleavage [11]: no ability to enhance DNA cleavage
enhancement of double-stranded DNA breaks [12]: no enhancement of double-stranded breaks was observed
EC50 [12, 18]: < 500 nM
ability to induce DNA cleavage in the presence of ATP [13]: marginal
enhancement of double-stranded DNA breaks [13]: no enhancement of double-stranded breaks was observed
EC50 [13, 18]: < 500 nM
induction of DNA cleavage [14]: ineffective at inducing DNA cleavage
Minimal Inhibitory Concentration [15]: 0.26 µM
activity against the bacterium in a screen [16]: moderate activity

COc1ccc2ncc(C#N)c(CCN3CCC(NCc4cc5c(cn4)OCS5)CC3)c2c1 [GSK299423]
type of gyrase-mediated DNA breaks induced [17]: induces only gyrase-mediated single-stranded DNA breaks

O=c1ccc2ncc(=O)n3c2n1C[C@H]3CN1CCC(NCc2cc3c(cn2)OCCC3)CC1 [gepotidacin]
type of gyrase-mediated DNA breaks induced [17]: induces only gyrase-mediated single-stranded DNA breaks
